# According to US7875607B2, “7,8-bicycloakyl-chroman derivatives” (Ampere Life Sciences, Inc., priority 2004, dated 2011):
# Assays:
# [1] = system: ELAM (E-selectin) expression in endothelial cells; assay: Cell-ELAM assay; type: cell-based; settings: 10 μg/ml LPS and 100 pg/ml IL-1β, 6 hours
# Source text: In vitro cell-based assays for inflammation are well known in the art, for example e-selectin (also named Endothelial Leukocyte Adhesion Molecule or ELAM) or C-reactive protein (CRP). The ELAM assay measures in vitro activity of the test compounds in reducing expression of ELAM in activated endothelial cells. Briefly, endothelial cells are […] by adding known activators such as lipopolysaccharides, TNF or IL-1, alone or in some combination. Activated cells produce ELAM, which can be measured using, for example, an E-selectin monoclonal antibody-based ELISA assay. Similarly the CRP assay measures in vitro activity of test compounds in reducing expression of CRP in Human Hep3B epithelial cells. The activated cells produce CRP, which can be measured with a CRP ELISA assay.
# Endothelial-Leukocyte Adhesion Molecule (ELAM), also known as E-selectin, was expressed on the surface of endothelial cells. In this assay, lipopolysaccharide (LPS) and IL-1β were used to stimulate the expression of ELAM; test agents were tested for their abilities to reduce this expression, in accordance with studies showing that reduction of leukocyte adhesion to endothelial cell surface was associated with decreased cellular damage (e.g., Takada, M., Et al., Transplantation 64: 1520-25, 1997; Steinberg, J. B., et al., J. Heart Lung Trans. 13:306-313, 1994).
# Endothelial cells may be selected from any of a number of sources and cultured according to methods known in the art; including, for example, coronary artery endothelial cells, human brain microvascular endothelial cells (HBMEC; Hess, D. C., et al., Neurosci. Lett. 213(1): 37-40, 1996), or lung endothelial cells. Cells were conveniently cultured in 96-well plates. Cells were stimulated by adding a solution to each well containing 10 μg/ml LPS and 100 pg/ml IL-1β for 6 hours in the presence of test agent (specific concentrations and time may be adjusted depending on the cell type) Treatment buffer was removed and replaced with pre-warmed Fixing Solution® (100 μl/well) for 25 minutes at room temperature. Cells were then washed 3×, then incubated with Blocking Buffer (PBS+2% FBS) for 25 minutes at room temperature. Blocking Buffer containing Monoclonal E-Selectin Antibody (1:750, Sigma Catalog # S-9555) was added to each well. Plates were sealed and stored at 4° overnight. Plates were washed 4× with 160 μL Blocking Buffer per well. Second Antibody-HRP diluted 1:5000 in Blocking Buffer was then added (100 μL/well), and plates were incubated at room temperature (protected from light) for two hours. Plates were then washed 4× with Blocking Buffer before addition of 100 μL of ABTS Substrate solution at room temperature (Zymed, Catalog # 00-2024). Wells were allowed to develop for 35 minutes, before measurement at 402 nm in a Fluoroskan® Reader with shake program for 10 seconds. Positive results were recorded as a decrease in ELAM concentration in tested wells, as compared to control wells.
# [2] = system: dopaminergic neuronal cell line; assay: High glutamate-induced oxidative stress assay (HGOS); type: cell-based; settings: Mus musculus; 30 mM glutamate, 16 hrs; read-out: EC50, protection against HGOS cell injury and cell death
# Outline: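 Mouse dopaminergic cells (passage ≤ p11) were grown 72 h at 33 °C, washed in HBSS, then exposed 16 h at 37 °C to compounds in DMEM-No Glu with 1 mM glucose and 30 mM glutamate. Surviving cells were stained 30 min with 5 μM Cell Tracker Green and fluorescence read at 485/538 nm.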
SMILES,EC50 [1],EC50 [2]
"CC1(C)CCc2cc(O)c3c(c2O1)C1CCC3CC1 [2,2-Dimethyl-3,4,7,8,9,10-hexahydro-7,10-ethano-2H-benzo[h]chromen-6-ol]",≤ 30 µM,–
"CC(C)=CCc1c(O)c2c(c3c1CCC(C)(C)O3)C1CCC2C1 (stereo not drawn) [2,2-Dimethyl-5-(3-methyl-but-2-enyl)-3,4,7,8,9,10-hexahydro-7,10-methano-2H-benzo[h]chromen-6-ol]",≤ 30 µM,≤ 1 µM
"CC(C)CCc1c(O)c2c(c3c1CCC(C)(C)O3)C1CCC2C1 (stereo not drawn) [2,2-Dimethyl-5-(3-methyl-butyl)-3,4,7,8,9,10-hexahydro-7,10-methano-2H-benzo[h]chromen-6-ol]",≤ 30 µM,≤ 1 µM
"CC1(C)C=Cc2cc(O)c3c(c2O1)C1CCC3CC1 [2,2-Dimethyl-7,8,9,10-tetrahydro-7,10-ethano-2H-benzo[h]chromen-6-ol]",–,≤ 1 µM
"CC1(CCCCl)CCc2cc(O)c3c(c2O1)C1CCC3C1 (stereo not drawn) [2-(3-Chloro-propyl)-2-methyl-3,4,7,8,9,10-hexahydro-7,10-methano-2H-benzo[h]chromen-6-ol]",≤ 30 µM,≤ 1 µM
"CC(C)CSCCCC1(C)CCc2cc(O)c3c(c2O1)C1CCC3C1 (stereo not drawn) [2-(3-isobutylsulfanyl-propyl)-2-methyl-3,4,7,8,9,10-hexahydro-7,10-methano-2H-benzo[h]chromen-6-ol]",≤ 30 µM,≤ 1 µM
"CC1(CCCSc2nccs2)CCc2cc(O)c3c(c2O1)C1CCC3C1 (stereo not drawn) [2-Methyl-2-[3-(thiazol-2-ylsulfanyl)-propyl]-3,4,7,8,9,10-hexahydro-7,10-methano-2H-benzo[h]chromen-6-ol]",≤ 30 µM,≤ 1 µM
